The values below are quoted from earlier work in patent publication US12133854B2 (SLAYBACK PHARMA LLC, priority 2021, dated 2024).

SMILES strings stand for the structures. Values after ≈ are worked out from the molar mass of the structure shown. “Also recorded” adds a separate entry of the source. Like-named read-outs stand apart in the source and are kept apart here.

The Solubility is the concentration that dissolves in the medium under given conditions.

Take `CC#C[C@]1(O)CC[C@H]2[C@@H]3CCC4=CC(=O)CCC4=C3[C@@H](c3ccc(N(C)C)cc3)C[C@@]21C` [Mifepristone, 11β-(4-dimethylaminophenyl)-17β-hydroxy-17α-(1-propynyl)-estra-4,9-dien-3-one]: the “Solubility in methanol, chloroform and acetone” value is given as “very soluble”; the Solubility in water result is on record as “practically insoluble; also recorded: low aqueous solubility”. Further, the Solubility result (above pH 2.5) was “less than 1 mg/mL”. In addition, the Solubility (in acid, pH 1.5) is recorded as around 25 mg/mL (≈ 58.2 mM).
